Laboratory results published in patent US4537729A, “Dimethylphosphoramidates” (Development of Finance Corporation of New Zealand, priority 1981, dated 1985).
Like-named read-outs stand apart in the source and are kept apart here.

Assays:
[1] = system: P388 leukaemia; assay: P388 leukaemia in vivo test in mice (i.p.); set-up: species or system mouse; conditions: for ILS (percentage increase in life span): at optimal dose (OD), days 1, 5 and 9, P388 i.p., controls survive 11 days, >20% significant; for Active: at the stated dose, P388 in vivo
Text: The P388 mouse leukaemia system has been shown by studies at the National Cancer Institute, U.S.A., to be a useful system for detecting agents with antitumour activity against clinical cancer (A. Goldin, J. M. Venditti, J. S. MacDonald, F. M. Muggia, J. E. Henney and V. T. De Vita, Europ.J.Cancer 17, 129-142 (1981).
Tumour P388 i.p.--P388 cells were obtained as frozen stocks from Mason Research Inc., U.S.A., and passaged introperitoneally according to standard methods (Cancer Chemother.Rep. 3, Part 3, page 9 (1972) in DBA-2 mice of either sex. Groups of six Fl hybrid mice (DBA-2 male x C57 Bl female, g weight 20±1 g) were injected intraperitoneally with 10^6 cells on day 0.
O.D.=optimal drug dose (in milligrams per kilogram), administered as a solution in 0.1 ml of 30% v/v ethyl alcohol in water on days 1, 5 and 9 after tumour inoculation. The drug is administered as a soluble acid addition salt.
ILS=percentage increase in life span of treated animals over that of groups of control animals injected with tumour alone. The average survival of control mice was 11 days. Values of ILS greater than 20% are considered statistically significant.
"Y. implies a significant value of drug activity at the stated dose.".

[2] = Reversed-phase partition chromatography (Rm); type: physicochemical; conditions: lipophilic-hydrophilic balance, linearly related to 1-octanol/water partition coefficients
Text: Rm=a measure of the compound's lipophilic-hydrophilic balance from reversed-phase partition chromatography. Rm is linearly related to partition coefficients obtained in the 1-octanol/water system.

[3] = system: L1210 tumour cells; assay: L1210 murine leukaemia cell culture, growth inhibition over 70 hours; type: cell-based; conditions: Mus musculus
[4] = system: tumour; conditions: literature; cited from earlier work
[5] = system: xanthomonas phaseoli; assay: Antibacterial activity; type: cell-based
[6] = system: streptococcus faecalis; assay: Antibacterial activity; type: cell-based
[7] = system: eschereichia coli; assay: Antibacterial activity; type: cell-based
[8] = system: micrococcus lysodeikticus; assay: Antibacterial activity; type: cell-based
[9] = system: bacillus subtilis; assay: Antibacterial activity; type: cell-based
[10] = system: alcaligenes viscolactis; assay: Antibacterial activity; type: cell-based
[11] = system: staphylococcus aureus; assay: Antibacterial activity; type: cell-based
[12] = system: aerobacter aerogenes; assay: Antibacterial activity; type: cell-based
[13] = system: sarcina lutea; assay: Antibacterial activity; type: cell-based
[14] = system: neisseria catarrhalis; assay: Antibacterial activity; type: cell-based

| Structure (SMILES) | ILS (percentage increase in life span) [1] | Active [1] | chromatographic logP [2] | IC50 ([3]; L1210, 70 h, read-out: ID50) | other results |
| --- | --- | --- | --- | --- | --- |
| COP(=O)(Nc1ccc(Nc2c3ccccc3nc3cc(Cl)ccc23)cc1)OC [Compound 4] | 54% | Y | 0.46 | 16 nM | – |
| COP(=O)(Nc1ccc(Nc2c3ccccc3nc3c(C)cccc23)cc1)OC [Compound 13] | 111% | Y | 0.46 | 8.9 nM | – |
| COP(=O)(Nc1ccc(Nc2c3cccc(C)c3nc3c(C)cccc23)cc1)OC [Compound 16] | 109% | Y | 0.37 | 17 nM | – |
| COc1cc(NP(=O)(OC)OC)ccc1Nc1c2ccccc2nc2c(C)cccc12 [Compound 14] | 106% | Y | 0.44 | 18 nM | – |
| CNC(=O)c1cccc2c(Nc3ccc(NP(=O)(OC)OC)cc3)c3ccccc3nc12 [Compound 11] | 38% | Y | 0.18 | 97 nM | – |
| COP(=O)(Nc1ccc(Nc2c3ccccc3nc3cc(Br)ccc23)cc1)OC [Compound 6] | 76% | Y | 0.47 | 15 nM | – |
| COc1cc(NP(=O)(OC)OC)ccc1Nc1c2ccccc2nc2cc(Br)ccc12 [Compound 7] | 83% | Y | 0.57 | 4.9 nM | – |
| CS(=O)(=O)Nc1ccc(Nc2c3ccccc3nc3ccccc23)cc1 [Compound 17, 4'-(9-acridinylamino)methanesulphonanilide, reference compound] | 93% | Y | – | – | antitumour effect (earlier work) [4]: marked antitumour effect; IC50 ([3]; murine L1210 leukaemia cells, 70 hours, counted cell number reduced by 50%, read-out: ID50 (the source's name)): 35 nM |
| COc1cc(NP(=O)(OC)OC)ccc1Nc1c2ccccc2nc2c(OC)cccc12 [Compound 10] | 76% | Y | 0.47 | 12 nM | – |
| COP(=O)(Nc1ccc(Nc2c3ccccc3nc3cc(C)ccc23)cc1)OC [Compound 3] | 80% | Y | 0.49 | 6.8 nM | – |
| CNC(=O)c1cccc2c(Nc3ccc(NP(=O)(OC)OC)cc3OC)c3ccc(Cl)cc3nc12 [Compound 15] | 79% | Y | 0.54 | 50 nM | – |
| COc1cc(NP(=O)(OC)OC)ccc1Nc1c2ccccc2nc2ccccc12 [Compound 2] | 67% | Y | 0.47 | 70 nM | – |
| COP(=O)(Nc1ccc(Nc2c3ccccc3nc3cc([N+](=O)[O-])ccc23)cc1)OC [Compound 8] | 22% | Y | 0.14 | 74 nM | – |
| COc1cc(NP(=O)(OC)OC)ccc1Nc1c2ccccc2nc2cc(Cl)ccc12 [Compound 5] | 78% | Y | 0.61 | 12 nM | – |
| COc1cccc2c(Nc3ccc(NP(=O)(OC)OC)cc3)c3ccccc3nc12 [Compound 9] | 44% | Y | 0.33 | 20 nM | – |
| COc1cc(NS(C)(=O)=O)ccc1Nc1c2ccccc2nc2ccccc12 [Compound 18, 4'-(9-acridinylamino)methanesulphon-m-anisidide, reference compound] | 78% | Y | – | – | – |
| CNC(=O)c1cccc2c(Nc3ccc(NP(=O)(OC)OC)cc3OC)c3ccccc3nc12 [Compound 12] | 118% | Y | 0.28 | 18 nM | – |
| COP(=O)(Nc1ccc(Nc2c3ccccc3nc3ccccc23)cc1)OC [Compound 1] | 74% | Y | 0.31 | 15 nM | antibacterial activity [5]: active; antibacterial activity [6]: active; antibacterial activity [7]: active; antibacterial activity [8]: active; antibacterial activity [9]: active; antibacterial activity [10]: active; antibacterial activity [11]: active; antibacterial activity [12]: active; antibacterial activity [13]: active; antibacterial activity [14]: active |
